Assay results from patent US7855185B2, “MN gene and protein” (Institute of Virology of the Slovak Academy of Sciences, priority 2001, dated 2010).

Target: MN/CA IX (Homo sapiens, UniProt Q16790)
Experiment: Cell adhesion assay on immobilized purified MN/CA IX (Example 2)
Format: cell-based
Conditions: not given
Procedure: The series of oligopeptides were tested by the cell adhesion assay procedure essentially as described above in Example 1. The synthetic oligopeptides were immobilized on hydrophobic plastic surfaces to see if they would mediate the attachment, spreading and growth of cells. Also investigated were whether the oligopeptides or antibodies inhibited attachment of cells (NIH3T3, HeLa and CGL1) to purified MN protein coated onto such plastic surfaces. The MN protein was affinity purified on agarose covalently linked to sulfonamide, as the MN protein encompasses a CA domain.
Cell adhesion assay. The conditions of the assay are basically as described in Example 1. Briefly, 1 μg/ml of purified MN/CA IX in 50 mM mono/bicarbonate buffer, pH 9.2, was adsorbed in 30 μl drops on the bottom of bacteriological 5 cm Petri dishes for 1.5 hr. Then the drops were removed by aspiration and the dishes were 3× rinsed with PBS and blocked with 50% FCS in culture medium for 30 min. There were two variants of the test. In the first one, the whole bottom of the Petri dish was blocked with 50% FCS, and the dishes were seeded with 5 ml of cell suspension (10^5 cells/ml). After overnight incubation, the cultures were rinsed with PBS, fixed and stained. In the other variant, only the area of adsorbed MN/CA IX was blocked and on top of MN/CA IX dots were added 30 μl drops of cell suspension in growth medium, containing added oligopeptides (or control without peptides). After incubation, rinsing and fixation, the cultures were stained with 0.5% Trypan blue in 50 mM Tris buffer pH 8.5 for 1 h, rinsed with water and dried. Stained areas of attached cells were extracted with 10% acetic acid, the extracts transferred to 96-well plates and absorbance was measured at 630 nm on microplate reader.

Row | Compound | activity of phage-display nonapeptides in cell adhesion inhibition
1 | AGQTRSPLA [SEQ ID NO: 140] | inactive
2 | AITFNAQYA [SEQ ID NO: 138] | highest activity
3 | AKKMKRRKA [SEQ ID NO: 137] | less active
4 | ASASAPVSA [SEQ ID NO: 139] | marginally positive only in ELISA

System: MAb M75
Experiment: Competition ELISA with M75 on adsorbed GST-MN
Format: binding, mouse
Conditions: not given
Procedure: ELISA. Purified GST-MN [Zavada et al. (1993), supra] at concentration 10 ng/ml in carbonate buffer pH 9.2 was adsorbed for 3 h in Maxisorb strips (NUNC). After washing and blocking (1 h) with 0.05% Tween 20 in PBS, 50 μl/well of the antibody+antigen mixtures were added. […] These mixtures were adsorbed for 1.5 h, followed by washing with Tween-PBS. Bound antibody was detected by antimouse IgG conjugate with peroxidase (SwAM-Px, SEVAC, Prague), diluted 1:1000. In the color reaction OPD (o-phenylenediamine dihydrochloride, Sigma) 1 mg/ml in 0.1 M citrate buffer pH 5.0 was used. To this H2O2 was added to final concentration 0.03%. This system is balanced so as to allow assay for antigen competing for M75 as well as for peptides binding to the epitope of immobilized GST-MN.
Identification of the epitope recognized by Mab M75. Preliminary mapping of M75 epitope employing partial sequences of extracellular parts of MN/CA9 cDNA expressed from bacterial vectors and tested on Western blots located it in PG region For exact mapping, our strategy was to synthesize partially overlapping oligopeptides of 15-25 aa covering the PG domain and test them in competition ELISA with M75. According to the results, this was followed by a series of 6-12 aa oligopeptides. A major part of the PG domain consists of a 6-fold tandem repeat of 6 aa (aa 61-96) [SEQ ID NO: 97]; 4 repeats are identical (GEEDLP) [SEQ ID NO: 98] and 2 contain 2 aa exchanged (SEEDSP [SEQ ID NO: 141] and REEDPP [SEQ ID NO: 142]).

Row | Compound | serological activity in competition ELISA with M75 | concentration causing 50% inhibition in competition ELISA | fold less active than SEQ ID NOS: 104 and 106 in competition ELISA
5 | ADLPGEEA [SEQ ID NO: 134] | none of the following still shorter oligopeptides (6+2aa) competed | – | –
6 | AEDLPGEA [SEQ ID NO: 133] | none of the following still shorter oligopeptides (6+2aa) competed | – | –
7 | AEEDLPGA [SEQ ID NO: 132] | none of the following still shorter oligopeptides (6+2aa) competed | – | –
8 | AGEEDLPA [SEQ ID NO: 131] | none of the following still shorter oligopeptides (6+2aa) competed | – | –
9 | ALPGEEDA [SEQ ID NO: 135] | none of the following still shorter oligopeptides (6+2aa) competed | – | –
10 | APGEEDLA [SEQ ID NO: 136] | none of the following still shorter oligopeptides (6+2aa) competed | – | –
11 | APGEEDLPA [SEQ ID NO: 125] | minimum serologically active sequence | – | –
12 | DLPGEEDLPGEE [SEQ ID NO: 122] | serologically active | – | –
13 | EDLPGEEDLP [SEQ ID NO: 121] | serologically active | – | –
14 | EDPPGEEDLPGEEDLPGEEDLPEVC [SEQ ID NO: 106, aa 75-98 of the PG region, cysteine added onto the C-end] | – | 1 ng/mL | –
15 | EEDLPGEEDLPG [SEQ ID NO: 120] | serologically active | – | –
16 | EVKPKSEEEGSLKLE [SEQ ID NO: 118, aa 97-111 of the PG region] | inactive | – | –
17 | GEEDLPGEEDLP [SEQ ID NO: 119] | serologically active | – | –
18 | GEEDLPSEEDSPREEDPPGEEDLPGEC [SEQ ID NO: 105, aa 61-85 of the PG region, cysteine added onto the C-end] | – | – | 1000 ×
19 | GGSSGEDDPLGEEDLPSEEDSPC [SEQ ID NO: 104, aa 51-72 of the PG region, cysteine added onto the C-end] | – | 1 ng/mL | –
20 | LPGEEDLPGEED [SEQ ID NO: 123] | serologically active | – | –
21 | PGEEDLPGEEDL [SEQ ID NO: 124] | serologically active | – | –

Same assay, conditions: 100 μg/ml

Row | Compound | competition in ELISA for M75
22 | ADLPGEEDA [SEQ ID NO. 129] | negative
23 | AEDLPGEEA [SEQ ID NO: 128] | negative
24 | AEEDLPGEA [SEQ ID NO: 127] | negative
25 | ALPGEEDLA [SEQ ID NO: 130] | negative

Same assay, conditions: peptides of 7+2 aa

Row | Compound | activity of phage-display nonapeptides in competition ELISA
26 | AGQTRSPLA [SEQ ID NO: 140] | inactive
27 | AITFNAQYA [SEQ ID NO: 138] | highest activity
28 | AKKMKRRKA [SEQ ID NO: 137] | less active
29 | ASASAPVSA [SEQ ID NO: 139] | marginally positive

System: Rat2TK- cells and C33 human cervical carcinoma cells transfected with pMN-HSVtk
Experiment: GVC sensitivity of pMN-HSVtk transfectants
Format: cell-based
Conditions: in vitro, even in low concentrations
Procedure: A plasmid construct in which HSVtk was cloned downstream of the MN promoter region Bd3, containing both proximal and distant regulatory elements of MN, was prepared. That plasmid pMN-HSVtk was transfected to Rat2TK-cells and C33 human cervical carcinoma cells using calcium phosphate precipitation and lipofection, respectively. Transfectants were tested for expression of HSVtk and GVC sensitivity. Analysis of the transfectants has shown the remarkable cytotoxic in vitro effect of GVC even in low concentrations (up to 95% of cells killed).

Row | Compound | cells killed
30 | Nc1nc(O)c2ncn(COC(CO)CO)c2n1 [GVC, ganciclovir] | up to 95%

System: NIH3T3 cells freshly transformed with the [pGD.MN+MLV] complex
Experiment: Morphologic transformation of NIH3T3 cells by [pGD.MN+MLV] complex in the presence of acetazolamide
Conditions: 10^−5M, 4 days of incubation

Row | Compound | difference between transformed cells growing in presence or absence of the drug
31 | CC(=O)Nc1nnc(S(N)(=O)=O)s1 [acetazolamide] | No difference
